From patent US20130089629A1, “KIT FOR THE TREATMENT OF ONYCHOMYCOSIS BY NITRIC OXIDE” (TOPICAL PHARMA AB, priority 2010, published 2013) come the findings set out here.

The assay has as its system skin surrounding the finger nail and the nail itself. The experiment in a line: Acidifying effect of salicylic acid paste in a fingerstall on skin and finger nail. It counts as in vivo. The following applies: paste 2% w/w in fingerstall, about 12 hours, vs empty fingerstall. On the procedure: In a study designed to investigate the acidifying effect on the skin surrounding the finger nail as well as the nail itself a paste comprising salicylic acid at 2% w/w was inserted in a fingerstall. The fingerstall was applied over the top of the finger covering it tightly for about 12 hours. A completely empty stall covering another finger served as control for the same time period
Upon scratching the nail surface with a sharp metal edge device, nail fragments (keratinized cells) were easily released in contrast to the nail at the finger covered with an empty fingerstall where the nail plate surface was hard.

On to `O=C(O)c1ccccc1O` [salicylic acid], for which the “appearance of the skin after exposure” value is “softening and loosening up of the skin”; the “effect on the nail plate surface” value was “loosened up the superficial outer nail plate layer”.
